Measurements: US20100249138A1, “MPZP: A SMALL MOLECULE CORTICOTROPIN-RELEASING FACTOR TYPE 1 RECEPTOR (CRF1) ANTOGONIST” (priority 2007, published 2010)
Entries after “also recorded” stand apart in the source; their conditions may differ.

Legend:
[1] = system: nicotine self-administration; assay: Nicotine self-administration, extended (23 hour) or limited (1 hour) access, nicotine deprivation effect; type: in vivo, rat
Method: The apparatus and detailed procedures for both intravenous catheterization and self-administration of nicotine have been described previously [O'dell et al., Pharmacol. Biochem. Behay. (2007) 86:346-353]. Adult male Wistar rats (280 to 330 g) were first allowed to nose-poke for food and water in 23 hours sessions prior to and after recovery from surgical implantation of jugular catheters. Following acquisition of these operant responses, rats were allowed to self-administer nicotine (0.03 mg/kg/100 μl/1 s, free base, fixed ratio=1 lever-response, time out=20 seconds) under different paradigms. Rats were allowed to acquire nicotine self-administration during daily 1 hour, “short-access” sessions (ShA, n=10) for at least 10 days. The CRF1 antagonist MPZP (0, 5, 10, 20 mg/kg) was then administered using a Latin square design, with 1-2 intervening treatment-free days. After completion of Study B, rats were allowed to self-administer nicotine during daily 23 hours, “long-access” sessions (LgA, n=8) for at least 10 days. Then, they were allowed to respond on a lever for nicotine self-administration in 4 four-day cycles, each separated by three intervening days of abstinence in their home cage. MPZP was administered before the first session following each cycle of abstinence using a Latin square design.

[2] = system: animal model of alcohol dependence; assay: Operant alcohol and water self-administration in alcohol vapor-dependent and nondependent rats (Study 2); type: in vivo, rat; conditions: for alcohol self-administration (g/kg intake): 0, 5, 10, 20 mg/kg
Excerpt: The effect of MPZP on drinking behavior was studied in an established animal model of alcohol dependence. […] (2006) 26:11324-11332; see also Roberts et al., Alcohol Clin. Exp. Res. (1996) 20:1289-1298; Overstreet et al., Alcohol Clin. Exp. Res. (2002) 26:1259-1268; Rimondini et al., FASEB J. (2002) 16:27-35; Valdez et al., Alcohol Clin. Exp. Res. (2002) 26:1494-1501 for related models].
Animals were permitted to self-administer alcohol or water orally in a concurrent, two-lever, free-choice contingency. A continuous reinforcement (fixed ratio-1) schedule was used in which each lever press was reinforced. Animals acquired alcohol self-administration using a variation of the previously described saccharin fading free-choice operant conditioning protocol [Samson et al., Alcohol Clin. Exp. Res. (1986) 10:436-442].
The present procedure culminates in pharmacologically relevant levels of alcohol self-administration, as defined by blood alcohol levels (BALs), in nondependent animals with limited access to alcohol over a 6-week period [Roberts et al., Alcohol Clin. Exp. Res. (1999) 23:1151-1157]. The modified procedure in the present study utilized a sweetened solution (“supersac”) containing 3% glucose and 0.125% saccharin (Sigma, St. Louis, Mo.) instead of water restriction and 0.2% saccharin to initiate and maintain operant responding [Funk et al., J. Neurosci. (2006) 26:11324-11332].
Animals respond for the sweetened solution within 1-2 training sessions, making water restriction unnecessary. Operant sessions during training were conducted 5 days per week between 0900 and 1500 (lights on at 0600). Operant sessions were 30 minutes in duration, except during the initial days of training in which sessions lasted up to 2 hours to permit acquisition of responding for the sweetened solution. Alcohol (10% w/v) then was added to the sweetened solution, and once mean responding stabilized (around one week) the glucose was removed from the solution, leaving only 0.125% saccharin and 10% w/v ethanol.
Animals then were maintained on 10% w/v ethanol for at least 3 weeks, and stable responders (±25% across three consecutive sessions) were evenly divided into two groups matched for baseline responding and exposed to intermittent ethanol vapors (dependent) or air (nondependent) as described below. A total of 16 rats (dependent, n=8; nondependent, n=8) were used for this experiment.
The self-administration system comprised test chambers (Coulbourn Instruments, Allentown, Pa.) contained within wooden sound-attenuated ventilated cubicles. The test chambers were equipped with two retractable levers located 4 cm above the grid floor and 4.5 cm to either side of a small stainless steel receptacle containing two drinking cups. […] Tap water was delivered to one dish, and the experimental solution (e.g., sweetened solution or alcohol) was delivered to the other dish. Fluid delivery and recording of operant self-administration were controlled by a computer. Lever presses were not recorded during the 0.5 second inter-response time-out interval when solution was being delivered.
A recent modification of the alcohol dependence model was made to reflect the natural progression of alcohol dependence in which alcohol exposure occurs in a series of extended exposures followed by periods of withdrawal [O′Dell et al., Alcohol Clin. Exp. Res. (2004) 28:1676-1682]. Chronic exposure to intermittent alcohol vapor exposure elicits even higher alcohol self-administration than continuous vapor (Ibid.), and the intermittent procedure therefore was used to induce dependence in trained animals in the present study. Vapors were delivered on a 14 hours on/10 hours off schedule for 4 weeks before post-vapor testing began.
Beginning 4 weeks after the onset of vapor exposure, post-vapor alcohol self-administration testing was conducted 2 times per week during acute withdrawal (6-8 hours after cessation of daily vapor exposure). […]

[3] = system: 62 other receptors, transporters, and ion channels; assay: Novascreen side-effect potential screening assay (GEN SEP I panel); type: binding; conditions: 10 μM
Method: Specificity of MPZP for other receptor, transporter, and ion channel targets was determined at 1 and 10 μM concentrations via a commercial screening service (Novascreen, GEN SEP I panel, Hanover, Md.).

[4] = system: cocaine self-administration; assay: Cocaine self-administration in short access (ShA) and long access (LgA) rats; type: in vivo, rat; conditions: for cocaine intake compared with vehicle: 45 minutes before session

**Q.** What does the source list for `COCCN(CCOC)c1cc(C)nc2c(-c3ccc(OC)cc3C)c(C)nn12` [MPZP, N,N-bis(2-methoxyethyl)-3-(4-methoxy-2-methylphenyl)-2,5-dimethyl-pyrazolo[1,5-a]pyrimidin-7-amine]?
**A.** nicotine intake following abstinence ([1]; extended access (23 hour), 0, 5, 10, 20 mg/kg s.c., vs vehicle-treated): dose-dependently decreased; baseline nicotine self-administration responding ([1]; limited access to nicotine (1 hour), s.c.): had no effect; also recorded: lack of effect; ED50 ([2]; Rattus norvegicus, sc, dependent animals, acute withdrawal (6-8 hours), s.c. 1 hour before 30 minute session, read-out: ED50, reduction of alcohol self-administration (sigmoidal dose-response fit)): 10.7 mg/kg; alcohol self-administration (g/kg intake) ([2]; dependent animals, 20 mg/kg vs vehicle): dose-dependently reduced; also recorded: significantly reduced; alcohol responses ([2]; dependent animals, 5 mg/kg): 72±14; alcohol responses ([2]; dependent animals, 10 mg/kg): 70±7; alcohol responses ([2]; dependent animals, 20 mg/kg): 47±7; water self-administration (responses) ([2]; dependent or nondependent animals): no effect; alcohol self-administration (g/kg intake) ([2]; nondependent animals): not nondependent animals; also recorded: no effect; alcohol responses ([2]; nondependent animals, 5 mg/kg): 37±5; alcohol responses ([2]; nondependent animals, 10 mg/kg): 32±5; alcohol responses ([2]; nondependent animals, 20 mg/kg): 33±4; activity at 62 other receptors, transporters, and ion channels [3]: did not exhibit high activity; slope of linear trend dose function on cocaine intake ([4]; LgA rats): −0.601±0.176; cocaine intake compared with vehicle ([4]; LgA rats, 10 mg/kg s.c.): significant decrease; cocaine intake compared with vehicle ([4]; LgA rats, 27.5 mg/kg s.c.): significant decrease; slope of linear trend dose function on cocaine intake ([4]; ShA rats): −0.254±0.106; cocaine intake compared with vehicle ([4]; ShA rats, 27.5 mg/kg s.c.): significant decrease
